pIC50: −log10 of the molar value. Read-outs that look alike come from different tables or passages of the source.
Target: T1, human KSP motor domain (KSP(367H)) (Homo sapiens, UniProt P52732)
T1 construct: were used to amplify the motor domain and the neck linker region; made in house; host or cells: E. coli BL21 (DE3), pRSETa
T1 sequence (P52732 18-359 limits assumed): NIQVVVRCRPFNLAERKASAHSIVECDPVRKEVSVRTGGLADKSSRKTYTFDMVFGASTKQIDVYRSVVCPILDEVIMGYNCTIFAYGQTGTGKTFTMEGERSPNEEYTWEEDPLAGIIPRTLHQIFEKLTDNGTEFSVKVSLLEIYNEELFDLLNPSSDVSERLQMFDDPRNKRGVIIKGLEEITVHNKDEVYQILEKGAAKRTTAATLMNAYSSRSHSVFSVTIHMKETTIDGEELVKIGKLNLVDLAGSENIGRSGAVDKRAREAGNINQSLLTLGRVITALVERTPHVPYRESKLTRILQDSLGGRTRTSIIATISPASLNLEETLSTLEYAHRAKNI
Test: Kinesin ATPase In Vitro Assay
Format: biochemical
Procedure: I. Kinesin ATPase In Vitro Assay
The N-terminal primer 5′-[…] (SEQ. ID. NO.: 1) and the C-terminal primer 5′-[…] […] […] The PCR products were digested with AseI and XhoI, ligated into the NdeI/XhoI digestion product of pRSETa (Invitrogen) and transformed into E. coli BL21 (DE3).
Cells were grown at 37° C. to an OD600 of 0.5. After cooling the culture to room temperature expression of KSP was induced with 100 μM IPTG and incubation was continued overnight. Cells were pelleted by centrifugation and washed once with ice-cold PBS. Pellets were flash-frozen and stored −80° C.
Cell pellets were thawed on ice and resuspended in lysis buffer (50 mM K-HEPES, pH 8.0, 250 mM KCl, 0.1% Tween, 10 mM imidazole, 0.5 mM Mg-ATP, 1 mM PMSF, 2 mM benzimidine, 1× complete protease inhibitor cocktail (Roche)). Cell suspensions were incubated with 1 mg/ml lysozyme and 5 mM β-mercaptoethanol on ice for 10 minutes, followed by sonication (3×30 sec). All subsequent procedures were performed at 4° C. Lysates were centrifuged at 40,000×g for 40 minutes. Supernatants were diluted and loaded onto an SP Sepharose column (Pharmacia, 5 ml cartridge) in buffer A (50 mM K-HEPES, pH 6.8, 1 mM MgCl2, 1 mM EGTA, 10 μM Mg-ATP, 1 mM DTT) and eluted with a 0 to 750 mM KCl gradient in buffer A. Fractions containing KSP were pooled and incubated with Ni-NTA resin (Qiagen) for one hour. The resin was washed three times with buffer B (Lysis buffer minus PMSF and protease inhibitor cocktail), followed by three 15-minute incubations and washes with buffer B. Finally, the resin was incubated and washed for 15 minutes three times with buffer C (same as buffer B except for pH 6.0) and poured into a column. KSP was eluted with elution buffer (identical to buffer B except for 150 mM KCl and 250 mM imidazole). KSP-containing fractions were pooled, made 10% in sucrose, and stored at −80° C.
Microtubules are prepared from tubulin isolated from bovine brain. Purified tubulin (>97% MAP-free) at 1 mg/ml is polymerized at 37° C. in the presence of 10 μM paclitaxel, 1 mM DTT, 1 mM GTP in BRB80 buffer (80 mM K-PIPES, 1 mM EGTA, 1 mM MgCl2 at pH 6.8). The resulting microtubules are separated from non-polymerized tubulin by ultracentrifugation and removal of the supernatant. The pellet, containing the microtubules, is gently resuspended in 10 μM paclitaxel, 1 mM DTT, 50 μg/ml ampicillin, and 5 μg/ml chloramphenicol in BRB80.
The kinesin motor domain is incubated with microtubules, 1 mM ATP (1:1 MgCl2: Na-ATP), and compound at 23° C. in buffer containing 80 mM K-HEPES (pH 7.0), 1 mM EGTA, 1 mM DTT, 1 mM MgCl2, and 50 mM KCl. […] Free phosphate from the ATP hydrolysis reaction is measured via a quinaldine red/ammonium molybdate assay by adding a […] of quench C (e.g., to a mixture of 40 μl reaction volume+40 μl stop buffer is then added 120 μl quench C). […] Quench C is a 2:1 ratio of quench A:quench B The reaction is incubated for 5-10 minutes at 23° C., and the absorbance of the phospho-molybdate complex is measured at 540 nm.

[1] = kinesin motor domain with microtubules, 1 mM ATP, 23° C., read-out: IC50

Row | pIC50 | SMILES | pIC50 [1]
1 | – | CON(C)C(=O)C1=NN(c2cc(C)ccc2F)CC1(CCCO)c1ccccc1 (racemic) [Compound 2-1, (±)-1-(2-fluoro-5-methylphenyl)-4-(3-hydroxypropyl)-N-methoxy-N-methyl-4-phenyl-4,5-dihydro-1H-pyrazole-3-carboxamide] | ≥ 4.30
2 | ≥ 4.30 | CC(=O)C1=NN(c2cc(C)ccc2F)CC1(CCCN(C)C)c1ccccc1 (racemic) [Compound 2-3, (±)-(1-[4-[3-(dimethylamino)propyl]-1-(2-fluoro-5-methylphenyl)-4-phenyl-4,5-dihydro-1H-pyrazol-3-yl]ethanone] | –
3 | – | CC(=O)C1=NN(c2cccc(F)c2)CC1c1ccccc1 (racemic) [Compound 3-5, (±)-1-[1-(3-fluorophenyl)-4-phenyl-4,5-dihydro-1H-pyrazol-3-yl]ethanone] | ≥ 4.30
4 | – | CCOC(=O)C1=NN(c2cc(F)ccc2F)C(N2CCOCC2)C1c1ccccc1 (racemic) [Compound 44, (±)-Ethyl 1-(2,5-difluorophenyl)-5-morpholin-4-yl-4-phenyl-4,5-dihydro-1H-pyrazole-3-carboxylate] | ≥ 4.30
5 | – | CC(=O)c1nn(-c2cc(F)ccc2F)cc1-c1ccccc1 [Compound 4-7, 1-[1-(2,5-difluorophenyl)-4-phenyl-1H-pyrazol-3-yl]ethanone] | ≥ 4.30

Source: patent US20080045492A1, “Mitotic Kinesin Inhibitors” (priority 2004, published 2008)
